Assays:
human T cells = assay type: cell-based
Method: T-cell apoptosis: T cells (2×10^6 cells/ml) were incubated for 2 h with the indicated concentrations of CSPG-DS in RPMI medium containing 10% FCS, and then plated on 24-well plates (non-tissue-culture grade) precoated with anti-CD3 mAb (1 μg/ml; overnight) and cultured for 72 h. The percentage of cells undergoing apoptosis was determined using the annexin V-detection assay (Bender MedSystem, San Bruno, Calif.). The cells were incubated for 10 min in the dark at room temperature in 200 μl of buffer containing FITC-conjugated human annexin V ([…]; Bender MedSystem, Propidium iodide (10 μl) was added to each sample, and the percentage of cells undergoing apoptosis was analyzed by FACS® at 525 nm using CELLQuest Software. Cells that stained positively for annexin V and negatively for propidium iodide corresponded to the apoptotic cells.

[1] = system: experimental autoimmune encephalomyelitis in mice; test: Experimental autoimmune encephalomyelitis (EAE); assay type: in vivo
Method: Induction of experimental autoimmune encephalomyelitis. Mice were immunized s.c. at one site in the flank with 200 μl of emulsion consisting of myelin oligodendrocyte glycoprotein (MOG) […] (300 μg per mouse) emulsified in CFA supplemented with 500 μg of Mycobacterium tuberculosis (Difco, Detroit, Mich.). Clinical symptoms of experimental autoimmune encephalomyelitis (EAE) were examined and scored daily, as follows: 0, no clinical disease; 0.5, piloerection; 1, tail weakness; 1.5, tail paralysis; 2, hindlimb weakness; 3, hindlimb paralysis; 3.5, forelimb weakness; 4, forelimb paralysis; 5, moribund state or death.

[2] = MOG-immunized mice, 5 μg injections on days 0, 3, 5 and 7

Question: Which results are given for CC(=O)N[C@H]1C(O)O[C@H](COS(=O)(=O)O)[C@H](O)[C@@H]1O[C@@H]1OC(C(=O)O)=C[C@H](O)[C@H]1O (stereo partly drawn) [CSPG-DS, 2-acetoamido-2-deoxy-3-O-(β-D-gluco-4-enepyranosyluronic acid)-6-O-sulfo-D-galactose]?
Answer: viability of the T cells (apoptosis) (human T cells): did not significantly affect; duration of the disease (EAE) [1, 2]: shortened; symptoms of the disease (EAE score) [1, 2]: significantly attenuated; EAE disease with less frequent injections ([1]; injection on day 0 only, or days 0 and 7): alleviated the disease
